The values below come from patent publication US5348952A, “β-lactam derivatives of the cephem sulphone type” (Farmitalia Carlo Erba S.R.L., priority 1989, dated 1994).

Like-named read-outs stand apart in the source and are kept apart here.

In experiment [1] the target is T1, human leukocyte elastase (HLE) (Homo sapiens, UniProt P08246).
T1 construct: purchased Calbiochem Lot 702038
T1 sequence (P08246 30-267): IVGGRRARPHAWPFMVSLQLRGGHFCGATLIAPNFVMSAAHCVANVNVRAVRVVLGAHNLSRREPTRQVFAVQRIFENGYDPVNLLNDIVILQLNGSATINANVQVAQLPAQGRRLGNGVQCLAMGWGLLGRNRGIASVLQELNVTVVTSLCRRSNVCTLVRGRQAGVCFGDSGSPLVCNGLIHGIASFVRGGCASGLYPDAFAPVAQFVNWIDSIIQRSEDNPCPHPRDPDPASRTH
Briefly: Inhibition of HLE activity, kinetic parameters (Protocol B). It counts as biochemical. Particulars: for Ki: steady state, read-out: "Potency" K1^ (apparent dissociation constant of the HLE-inhibitor complex at steady state, Ki^ss).
Method: Protocol B--Inhibition of HLE activity (Calbiochem, Lot 702038) was determined at 37° C., 0.027M pH 7.4 phosphate buffer, 1% DMSO, 1% MeCN, NaCl (I=15), by monitoring the release of 7-amino-4-methylcoumarin (fluorescence detection) from N-methoxysuccinyl-alanyl-prolyl-valyl-7-amido-4-methylcoumarin as substrate, according to the equations: [formula] wherein: [P], [I], [S]=product, inhibitor and substrate concentration
km =Michaelis constant for the enzyme-substrate pair (independently determined under the same experimental conditions).

The target of experiment [2] is porcine pancreatic elastase, PPE (Sus scrofa, UniProt P00772). Briefly: Inhibition of PPE activity (Protocol A). It counts as biochemical. As to conditions: 30° C., 0.05M pH 7.4 phosphate buffer, 2.5% MeCN; 50% reduction of enzyme activity 6.4 minutes after zero time; read-out: PPE-inhibitory activity IC50 (converted). As to the method: To illustrate this point, Table 1 reports the results of our preliminary screening test (carried out with porcine pancreatic elastase, PPE), wherein four representative compounds of the present invention (formula I) are compared with the corresponding 2-unsubstitued compounds of formula II (References A and B).
Protocol A--Inhibition of PPE activity was determined at 30° C., 0.05M pH 7.4 phosphate buffer, 2.5% MeCN, by monitoring the release of p-nitroaniline (410 nm, Carlo Erba Strumentazione Spectracomp spectrophotometer) from the substrate (N-t-Boc-alanyl-alanyl-prolyl-alanine-p-nitroanilide, 0.2 mM initial concentration).

[3] abbreviates: 37° C., 0.027M pH 7.4 phosphate buffer, 1% DMSO, 1% MeCN, read-out: "Efficacy" Kon (rate of formation of the HLE-inhibitor complex).
The mark [4] stands for this setting: 37° C., 0.027M pH 7.4 phosphate buffer, 1% DMSO, 1% MeCN.

A word on the kon: it is a measure of how fast the partners come together. For orientation: IC50 means the concentration needed to halve the response being measured.

porcine pancreatic elastase, PPE, sequence (P00772 27-266): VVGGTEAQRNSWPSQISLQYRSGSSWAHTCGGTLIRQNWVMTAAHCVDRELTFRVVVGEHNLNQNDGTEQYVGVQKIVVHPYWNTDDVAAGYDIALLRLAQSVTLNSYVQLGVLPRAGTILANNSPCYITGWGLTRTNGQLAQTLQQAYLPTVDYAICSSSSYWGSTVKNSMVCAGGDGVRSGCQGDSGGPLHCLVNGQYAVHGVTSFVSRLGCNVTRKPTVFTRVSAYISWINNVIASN

Take `CO[C@H]1C(=O)N2C(C(=O)N3CCCC3)=C(CSc3nc(=O)c(O)nn3C)CS(=O)(=O)[C@H]12` [Merck L-659,286, reference compound]: the kon in experiment [1] (pH 7.4, read-out: "Efficacy" Kon (rate of formation of the HLE-inhibitor complex)) worked out at 1500 M⁻¹ s⁻¹.

With `CC1=C(C(=O)C(C)(C)C)N2C(=O)[C@H](Cl)[C@H]2S(=O)(=O)C1` [Reference A, reference compound], in experiment [2], the IC50 was 6.54 µM.

Consider `CO[C@H]1C(=O)N2C(C(=O)C(C)(C)C)=C(C)CS(=O)(=O)[C@H]12` [Reference B, reference compound], for which the 50% inhibitory concentration (IC50) in experiment [2] is 6.64 µM.

For `CC1=C(C(=O)OC(C)(C)C)N2C(=O)[C@H](Cl)[C@H]2S(=O)(=O)C1Sc1nc2ccccc2s1` (some centres unmarked) [Reference C, reference compound], the IC50 in experiment [2] is 4.11 µM.

Turning to `COC(=O)C1=C(C)C(Sc2nnnn2C)S(=O)(=O)[C@@H]2[C@@H](OC)C(=O)N12` (some centres unmarked) [Reference D, reference compound], the on-rate (kon) in experiment [1] (setting [3]) worked out at 500 M⁻¹ s⁻¹. Besides, the Ki in experiment [1] (setting [4]) was 0.038 µM. Also, in experiment [2], the IC50 was 12.8 µM.

With `CO[C@H]1C(=O)N2C(C(=O)C(C)(C)C)=C(C)C(Sc3nnnn3C)S(=O)(=O)[C@H]12` (stereo partly drawn) [n° 1, 4-tert-Butylcarbonyl-7α-methoxy-3-methyl-2-(1-methyl-1,2,3,4-tetrazol-5-yl)thio-3-cephem 1,1-dioxide], the association rate constant (kon) in experiment [1] (setting [3]) stood at 90000 M⁻¹ s⁻¹. Further, the Ki in experiment [1] (setting [4]) amounted to 0.0083 µM. Besides, in experiment [2], the IC50 was 0.0963 µM.

`CC1=C(C(=O)C(C)(C)C)N2C(=O)[C@H](Cl)[C@H]2S(=O)(=O)C1Sc1nc(=O)c(OC(c2ccccc2)c2ccccc2)nn1C` (stereo partly drawn) [n° 4, 4-Tert-butylcarbonyl-7α-chloro-3-methyl-2-(2-methyl-5-oxo-6-benzhydryloxy-2,5-dihydro 1,2,4-triazin-3-yl-)thio-3-cephem 1,1-dioxide]: the 50% inhibitory concentration (IC50) in experiment [2] is 0.0715 µM.

For the compound `CC1=C(C(=O)C(C)(C)C)N2C(=O)[C@H](Cl)[C@H]2S(=O)(=O)C1Sc1nc(=O)c(O)nn1C` (stereo partly drawn) [n° 5, 4-tert-butylcarbonyl-7α-chloro-3-methyl-2-(2-methyl-5-oxo-6-hydroxy-2,3-dihydro-1,2,4-triazin-3-yl)-thio-3-cephem 1,1-dioxide], the IC50 in experiment [2] was 0.0756 µM.

`CO[C@H]1C(=O)N2C(C(=O)C(C)(C)C)=C(C)C(Sc3nnnn3CCCC(=O)O)S(=O)(=O)[C@H]12` (stereo partly drawn) [n° 7, 4-tert-Butylcarbonyl-7α-methoxy-3-methyl-2-[1-(3-carboxy-1-propyl)-1,2,3,4-tetrazol-5-yl]thio-3-cephem 1,1-dioxide]: the kon in experiment [1] (setting [3]) turned out to be 11000 M⁻¹ s⁻¹. The Ki in experiment [1] (setting [4]) came to 0.018 µM.

`CO[C@H]1C(=O)N2C(C(=O)C(C)(C)C)=C(C)C(Sc3nc(=O)c(O)nn3C)S(=O)(=O)[C@H]12` (stereo partly drawn) [n° 9, 4-tert-Butylcarbonyl-7α-methoxy-3-methyl-2-(2-methyl-5-oxo-6-hydroxy-2,5-dihydro-1,2,4-triazin-3-yl)thio-3-cephem 1,1-dioxide]: the kon in experiment [1] (setting [3]) was determined as 25000 M⁻¹ s⁻¹. Further, in experiment [1] (setting [4]), the Ki stood at 0.026 µM. Besides, in experiment [2], the 50% inhibitory concentration (IC50) was 0.0654 µM.
